Several values for one entry are separate records, joined by “and”; a condition that tells them apart may be missing. Identical values can stand only once.
Tests used:
[1] = Protonation constants of the ligands by pH-potentiometric titration; assay type: physicochemical; conditions: I = 0.15 M NaCl, 25 °C; for Σ log K2H: log K1H + log K2H
Experimental: The concentration of the ligand solutions was determined by pH-potentiometric titration in the presence and absence of an excess (5–10 fold) of MnCl2. For determining the protonation constants of the investigated ligands, pH-potentiometric titrations were made by means of 0.2 M standardized NaOH in 2 and 3 mM ligand solutions in the pH-range of 1.75–11.85. All equilibrium measurements were performed at a constant 0.15 M NaCl ionic strength at 25 °C. The protonation and the stability constants of the Mn(II) complexes were determined by pH-potentiometric titrations (DOTP, DO3A, PCTA, ODO3A, DO3P) while owing to the slow formation rates of Mn(II) complexes formed with amide type ligands, the stability constants of DOTAM, DOTMA, DO3AM^H, PC3AM^H, PC3AM^Gly, PC3AM^Pip complexes were determined by out-of-cell pH-potentiomertry in combination with ^1H relaxometry. The metal-to-ligand concentration ratio in the solutions was 1:1. For the calculation of protonation constants of the ligands and the log KMnL and log KMnLHi values of the complexes, mL–pH data pairs (50–180), obtained in the pH range of 1.75–11.85 or r1obs-pH data pairs (10–15 batch samples) obtained in the pH range of 2–4.5 were used (the samples were equilibrated for 4–7 days). The equilibrium constants characterizing the deprotonation that occurs at basic pH were determined from the data obtained via direct pH-potentiometric titrations performed on the pre-formed complexes.
The pH-potentiometric titrations were carried out with a Methrohm 888 Titrando titration workstation using a Metrohm-6.0233.100 combined electrode. The samples (6.00 mL) were thermostated at 25 °C. The samples were stirred and kept under inert gas (N2) to avoid the effect of CO2. KH-phthalate (pH = 4.005) and borax (pH = 9.177) buffers were used for the pH-calibration. The method proposed by Irving et al. was used for the calculation of H^+ concentrations from the measured pH values (Irving et al., [1967]). A 0.01 M HCl (I = 0.15 M set with NaCl) solution was titrated with standardized NaOH solution of known concentration (approx. 0.2 M). The correction factor obtained as difference of calculated pH and measured pH values was used to calculate the [H^+] in the samples. The ionic product of water was determined from the same titrations (HCl/NaOH) from the data collected in the pH range of 11.20–11.85.
The protonation and complexation equilibria of the macrocyclic ligands and their Mn(II) complexes have been studied by pH-potentiometric and relaxometric methods in the presence of 0.15 M NaCl whose ionic strength mimics the physiological conditions. The protonation constants of the ligands were evaluated by fitting the pH-V(mL) base data pairs collected in the pH-potentiometric titrations. The protonation equilibria of the ligands can be described by Equation (2). (a comparison of previously published log K^H data available in the Supplementary Material) together with the constants of H4DOTA, cis- and trans-H2DO2A derivatives given for comparison. (2) KiH=[HiL]/[Hi-1L][H^+],i=1,2,…

[2] = Dissociation kinetics of the Mn(II) complexes (acid catalyzed dissociation, metal or ligand exchange reactions); assay type: physicochemical; conditions: I = 0.15 M NaCl, 25 °C
Method in brief: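 Complexes at 0.25 mM (1.0–2.0 mM for relaxometry) dissociated in 0.05–1.0 M HCl or with 10–40-fold Cu(II) (pH 3.6–5.0) or Zn(II) (up to pH 6.0), in 0.05 M DMP/NMP buffer, 0.15 M NaCl, 25 °C. Progress was followed by UV-vis at 269 or 300 nm or by relaxometry. Pseudo-first-order kobs came from single-exponential fits.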

Compound | log K1H ([1]; ligand protonation constant) | log K2H ([1]; ligand protonation constant) | log K3H ([1]; ligand protonation constant) | log K4H ([1]; ligand protonation constant) | Σ log K2H [1] | k1 (proton-assisted dissociation) ([2]; stopped-flow in highly acidic condition, proton-assisted dissociation of the [Mn(HL)] complex) | k1 (proton-assisted dissociation) [2] | log K5H ([1]; ligand protonation constant) | log K6H ([1]; ligand protonation constant) | k1 (proton-assisted dissociation) ([2]; ligand exchange reaction with trans-CDTA^4− or DTPA^5− in the pH range 8-9.5) [M⁻¹ s⁻¹] | t1/2 0.1 M HCl ([2]; half-life of dissociation calculated for 0.1 M H+) [min]
O=C(O)CN1CCN(CC(=O)O)Cc2cccc(n2)CN(CC(=O)O)CC1 [PCTA] | 9.97 (3) | 6.73 (5) | 3.22 (6) | 1.40 (9) | 16.70 | 0.112 M⁻¹ s⁻¹ and 0.109 M⁻¹ s⁻¹ |  |  |  |  | 
NC(=O)CN1CCN(CC(N)=O)Cc2cccc(n2)CN(CC(N)=O)CC1 [PC3AM^H] | 8.76 (3) | 4.10 (4) |  |  | 12.86 |  | 0.0107 M⁻¹ s⁻¹ |  |  |  | 
O=C(O)CN1CCNCCN(CC(=O)O)CCN(CC(=O)O)CC1 [DO3A] | 10.07 (5) | 8.93 (6) | 4.43 (9) | 4.11 (7) | 19.00 |  | 0.45 M⁻¹ s⁻¹ | 1.88 (7) |  |  | 
O=P(O)(O)CN1CCNCCN(CP(=O)(O)O)CCN(CP(=O)(O)O)CC1 [DO3P] | 12.55 (2) | 11.37 (1) | 8.57 (2) | 7.02(2) | 23.92 |  |  | 5.36 (2) | 1.84 (2) | 240000 | 
O=C(CN1CCN(CC(=O)N2CCCCC2)Cc2cccc(n2)CN(CC(=O)N2CCCCC2)CC1)N1CCCCC1.[Mn+2] [[Mn(PC3AM^Pip)]^2+] |  |  |  |  |  |  | (4.64 ± 0.04) × 10^−3 M^−1s^−1 |  |  |  | 25

— article PMC6099102, “Effect of the Nature of Donor Atoms on the Thermodynamic, Kinetic and Relaxation Properties of Mn(II) Complexes Formed With Some Trisubstituted 12-Membered Macrocyclic Ligands” (Frontiers in Chemistry, 2018)
